Reference: patent publication US20240158390A1, “OTHER HETEROAROMATIC COMPOUNDS HAVING ACTIVITY AGAINST RSV” (Janssen Sciences Ireland Unlimited Company, priority 2019, published 2024)

Columns and labels:
rgRSV224 virus = test: Antiviral activity: rgRSV224 (GFP) replication in HeLa cells; type: cell-based; conditions: human respiratory syncytial virus, 72 h, read-out: RSV HELA EC50 (μM)
Method: (§1) Black 384-well clear-bottom microtiter plates (Corning, Amsterdam, The Netherlands) were filled via acoustic drop ejection using the echo liquid handler (Labcyte, Sunnyvale, California). 200 nL of compound stock solutions (100% DMSO) were transferred to the assay plates. 9 serial 4-fold dilutions of compound were made, creating per quadrant the same compound concentration. The assay was initiated by adding 10 μL of culture medium to each well (RPMI medium without phenol red, 10% FBS-heat inactivated, 0.04% gentamycin (50 mg/mL). All addition steps are done by using a multidrop dispenser (Thermo Scientific, Erembodegem, Belgium). Next, rgRSV224 virus (MOI=1) diluted in culture medium was added to the plates. rgRSV224 virus is an engineered virus that includes an additional GFP gene (Hallak LK, Spillmann D, Collins PL, Peeples ME. Glycosaminoglycan sulfation requirements for respiratory syncytial virus infection; Journal of virology (2000), 74(22), 10508-13) and was in-licensed from the NIH (Bethesda, MD, USA). Finally, 20 μL of a HeLa cell suspension (3,000 cells/well) were plated. Medium, virus- and mock-infected controls were included in each test. The wells contain 0.05% DMSO per volume. Cells were incubated at 37° C. in a 5% CO2 atmosphere. Three days post-virus exposure, viral replication was quantified by measuring GFP expression in the cells by an in house developed MSM laser microscope (Tibotec, Beerse, Belgium). The EC50 was defined as the 50% inhibitory concentration for GFP expression. In parallel, compounds were incubated for three days in a set of white 384-well microtiter plates (Corning) and the cytotoxicity of compounds in HeLa cells was determined by measuring the ATP content of the cells using the ATPlite kit (Perkin Elmer, Zaventem, Belgium) according to the manufacturer's instructions. The CC50 was defined as the 50% concentration for cytotoxicity.

in vitro = type: cell-based; conditions: human
Method: as §1

Q: For `C[C@@H]1c2ccccc2CCN1C(=O)c1cc(C2CC2)c2nc(-c3ccc(N4CC[C@H](C(N)=O)C4)cc3F)n(C)c2c1` [Compound 17, (3S)-1-(4-{4-Cyclopropyl-1-methyl-6-[(1R)-1-methyl-1,2,3,4-tetrahydroisoquinoline-2-carbonyl]-1H-1,3-benzodiazol-2-yl}-3-fluorophenyl)pyrrolidine-3-carboxamide], which EC50 (rgRSV224 virus) is on record?
A: 0.17 µM

Q: What about the CC50 at 3 days (in vitro) of the same compound?
A: 39.6 µM

Q: What does the source list for `C[C@@H]1c2ccccc2CCN1C(=O)c1cc(C2CC2)c2nc(-c3ccc(NC(=O)N4CC[C@@H](O)C4)cc3F)n(C)c2c1` [Compound 18, (3R)-N-(4-{4-Cyclopropyl-1-methyl-6-[(1R)-1-methyl-1,2,3,4-tetrahydroisoquinoline-2-carbonyl]-1H-1,3-benzodiazol-2-yl}-3-fluorophenyl)-3-hydroxypyrrolidine-1-carboxamide]?
A: EC50 (rgRSV224 virus): 0.14 µM; CC50 at 3 days (in vitro): 51.6 µM

Q: For `C[C@@H]1c2ccccc2CCN1C(=O)c1cc(C2CC2)c2nn(-c3ccc(N)cc3F)cc2c1` [Compound 19, 4-{7-Cyclopropyl-5-[(1R)-1-methyl-1,2,3,4-tetrahydroisoquinoline-2-carbonyl]-2H-indazol-2-yl}-3-fluoroaniline], which EC50 (rgRSV224 virus) is on record?
A: 0.16 µM

Q: What about the CC50 at 3 days (in vitro) of the same compound?
A: 55.2 µM

Q: Which EC50 (rgRSV224 virus) does the source give for `C[C@@H]1c2ccccc2CCN1C(=O)c1cc(C2CC2)c2nn(-c3ccc(NC(=O)N4CC[C@H](O)C4)cc3F)cc2c1` [Compound 20, (3S)-N-(4-{7-Cyclopropyl-5-[(1R)-1-methyl-1,2,3,4-tetrahydroisoquinoline-2-carbonyl]-2H-indazol-2-yl}-3-fluorophenyl)-3-hydroxypyrrolidine-1-carboxamide] here?
A: 0.06 µM

Q: What about the CC50 at 3 days (in vitro) of the same compound?
A: 54.4 µM

Q: For `C[C@@H]1c2ccccc2CCN1C(=O)c1cc(C2CC2)c2nc(-c3ccc(N4CC[C@H](C(=O)O)C4)cc3F)oc2c1` [Compound 21, (3S)-1-(4-{4-Cyclopropyl-6-[(1R)-1-methyl-1,2,3,4-tetrahydroisoquinoline-2-carbonyl]-1,3-benzoxazol-2-yl}-3-fluorophenyl)pyrrolidine-3-carboxylic acid], which EC50 (rgRSV224 virus) is on record?
A: 0.01 µM

Q: And the CC50 at 3 days (in vitro)?
A: 51.5 µM

Q: What does the source list for `C[C@@H]1c2ccccc2CCN1C(=O)c1cc(C2CC2)c2nc(-c3ccc(N4CC[C@H](C(N)=O)C4)cc3F)oc2c1` [Compound 22, (3S)-1-(4-{4-Cyclopropyl-6-[(1R)-1-methyl-1,2,3,4-tetrahydroisoquinoline-2-carbonyl]-1,3-benzoxazol-2-yl}-3-fluorophenyl)pyrrolidine-3-carboxamide]?
A: EC50 (rgRSV224 virus): 0.01 µM; CC50 at 3 days (in vitro): 54.8 µM

Q: Which EC50 (rgRSV224 virus) does the source give for `C[C@@H]1c2ccccc2CCN1C(=O)c1cc(C2CC2)c2nc(-c3ccc(NC(=O)N4CC[C@@H](O)C4)cc3F)oc2c1` [Compound 23, (R)-N-(4-(4-cyclopropyl-6-((R)-1-methyl-1,2,3,4-tetrahydroisoquinoline-2-carbonyl)benzo[d]oxazol-2-yl)-3-fluorophenyl)-3-hydroxypyrrolidine-1-carboxamide] here?
A: 0.05 µM

Q: What about the CC50 at 3 days (in vitro) of the same compound?
A: 47.8 µM

Q: Which EC50 (rgRSV224 virus) does the source give for `C[C@@H]1c2ccccc2CCN1C(=O)c1cc(C2CC2)c2nc(-c3ccc(NC(=O)N4CC[C@@H](O)C4)cc3F)sc2c1` [Compound 24, (R)-N-(4-(4-cyclopropyl-6-((R)-1-methyl-1,2,3,4-tetrahydroisoquinoline-2-carbonyl)benzo[d]thiazol-2-yl)-3-fluorophenyl)-3-hydroxypyrrolidine-1-carboxamide] here?
A: 0.17 µM

Q: And the CC50 at 3 days (in vitro)?
A: 54 µM

Q: For `C[C@@H]1c2ccccc2CCN1C(=O)c1cc(-c2ccccc2)c2cn(-c3ccc(N4C[C@H](O)[C@@H](O)C4)cc3F)nc2c1` [Compound 25, (2-(4-((3S,4S)-3,4-dihydroxypyrrolidin-1-yl)-2-fluorophenyl)-4-phenyl-2H-indazol-6-yl)((R)-1-methyl-3,4-dihydroisoquinolin-2 (1H)-yl)methanone], which EC50 (rgRSV224 virus) is on record?
A: 0.47 µM

Q: And the CC50 at 3 days (in vitro)?
A: 19.4 µM
